Data as given in ChEMBL document CHEMBL3217591, “Synthesis and biological evaluation of imidazolylmethylacridones as cytochrome P-450 enzymes inhibitors” (Medchemcomm, 2012).

Tests used:
[1] = target: T1, Cytochrome P450 11B1, mitochondrial (Homo sapiens, UniProt P15538); experiment: Inhibition of CYP11B1 (unknown origin) expressed in Chinese hamster V79MZ cells using [1,2-3H]-11-deoxycorticosterone as substrate at 500 nM preincubated for 60 mins followed by substrate addition measured after 25 mins by HPLC analysis relative to control; type: cell-based
T1 sequence (P15538 whole entry): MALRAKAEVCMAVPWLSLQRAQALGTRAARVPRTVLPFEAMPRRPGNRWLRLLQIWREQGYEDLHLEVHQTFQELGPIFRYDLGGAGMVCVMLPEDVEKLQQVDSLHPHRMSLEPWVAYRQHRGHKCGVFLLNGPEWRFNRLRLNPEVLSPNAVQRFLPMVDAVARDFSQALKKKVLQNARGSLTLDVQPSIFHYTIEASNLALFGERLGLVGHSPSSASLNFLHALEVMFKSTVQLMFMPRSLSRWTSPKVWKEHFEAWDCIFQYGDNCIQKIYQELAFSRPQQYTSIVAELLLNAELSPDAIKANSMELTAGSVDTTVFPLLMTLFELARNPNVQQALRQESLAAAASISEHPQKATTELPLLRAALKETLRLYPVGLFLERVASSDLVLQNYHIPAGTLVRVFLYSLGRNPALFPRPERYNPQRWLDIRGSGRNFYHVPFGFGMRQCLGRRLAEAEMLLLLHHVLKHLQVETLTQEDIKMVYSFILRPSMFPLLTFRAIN

[2] = target: T2, Cytochrome P450 11B2, mitochondrial (Homo sapiens, UniProt P19099); experiment: Inhibition of CYP11B2 (unknown origin) expressed in Chinese hamster V79MZ cells using [1,2-3H]-11-deoxycorticosterone as substrate at 500 nM preincubated for 60 mins followed by substrate addition measured after 50 mins by HPLC analysis relative to control; type: cell-based
T2 sequence (P19099 whole entry): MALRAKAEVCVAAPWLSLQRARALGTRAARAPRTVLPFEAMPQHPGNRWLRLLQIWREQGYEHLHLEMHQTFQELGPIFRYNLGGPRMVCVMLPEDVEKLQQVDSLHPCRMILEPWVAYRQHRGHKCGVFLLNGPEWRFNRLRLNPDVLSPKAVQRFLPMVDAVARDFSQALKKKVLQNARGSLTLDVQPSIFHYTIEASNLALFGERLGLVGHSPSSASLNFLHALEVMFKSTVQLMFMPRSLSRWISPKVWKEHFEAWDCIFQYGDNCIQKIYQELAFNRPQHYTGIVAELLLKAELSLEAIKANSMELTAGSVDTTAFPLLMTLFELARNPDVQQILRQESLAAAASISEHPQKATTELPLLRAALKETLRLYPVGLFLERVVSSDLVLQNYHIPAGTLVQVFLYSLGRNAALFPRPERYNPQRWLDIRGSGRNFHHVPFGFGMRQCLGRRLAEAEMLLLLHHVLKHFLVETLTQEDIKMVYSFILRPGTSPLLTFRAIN

[3] = target: T3, Aromatase (Homo sapiens, UniProt P11511); experiment: Inhibition of CYP19 isolated from microsomal fraction of human term placental tissue using [1beta-3H] androstenedione as substrate at 2 uM preincubated for 5 mins followed by enzyme addition measured after 20 mins by beta scintillation counting analysis relative to control
T3 sequence (P11511 whole entry): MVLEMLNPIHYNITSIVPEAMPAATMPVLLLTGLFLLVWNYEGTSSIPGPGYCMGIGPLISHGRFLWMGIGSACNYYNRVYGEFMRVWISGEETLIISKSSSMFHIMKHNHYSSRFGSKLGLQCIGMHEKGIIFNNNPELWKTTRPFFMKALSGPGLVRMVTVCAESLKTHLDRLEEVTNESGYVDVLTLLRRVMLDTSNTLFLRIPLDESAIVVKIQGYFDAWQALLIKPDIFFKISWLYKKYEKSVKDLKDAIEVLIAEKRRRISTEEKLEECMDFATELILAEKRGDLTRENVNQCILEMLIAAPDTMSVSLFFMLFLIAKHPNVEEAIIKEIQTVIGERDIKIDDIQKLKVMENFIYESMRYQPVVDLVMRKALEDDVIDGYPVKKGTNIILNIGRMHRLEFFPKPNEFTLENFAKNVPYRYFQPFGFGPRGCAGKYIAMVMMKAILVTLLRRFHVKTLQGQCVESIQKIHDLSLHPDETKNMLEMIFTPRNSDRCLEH

[4] = target: T4, Steroid 17-alpha-hydroxylase/17,20 lyase (Homo sapiens, UniProt P05093); experiment: Inhibition of human CYP17 expressed in Escherichia coli using progesterone as substrate at 2 uM preincubated for 5 mins followed by enzyme addition measured after 30 mins by HPLC analysis relative to control; details: 0.5 h
T4 sequence (P05093 whole entry): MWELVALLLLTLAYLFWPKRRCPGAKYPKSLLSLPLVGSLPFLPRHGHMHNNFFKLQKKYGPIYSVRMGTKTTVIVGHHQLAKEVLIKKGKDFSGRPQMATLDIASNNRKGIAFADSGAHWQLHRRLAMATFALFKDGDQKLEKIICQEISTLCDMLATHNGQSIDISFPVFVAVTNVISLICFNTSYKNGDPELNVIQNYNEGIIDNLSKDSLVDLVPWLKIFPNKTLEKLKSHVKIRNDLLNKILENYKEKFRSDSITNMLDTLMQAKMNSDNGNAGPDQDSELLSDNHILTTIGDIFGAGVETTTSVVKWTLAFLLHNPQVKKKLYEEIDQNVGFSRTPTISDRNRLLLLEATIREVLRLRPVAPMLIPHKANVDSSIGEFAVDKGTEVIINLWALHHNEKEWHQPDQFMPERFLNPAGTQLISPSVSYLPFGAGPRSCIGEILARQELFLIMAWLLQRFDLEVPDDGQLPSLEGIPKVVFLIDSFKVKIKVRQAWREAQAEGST

[5] = target: T3, Aromatase; experiment: Inhibition of CYP19 isolated from microsomal fraction of human term placental tissue using [1beta-3H] androstenedione as substrate preincubated for 5 mins followed by enzyme addition measured after 20 mins by beta scintillation counting analysis
[6] = target: T1, Cytochrome P450 11B1, mitochondrial; experiment: Inhibition of CYP11B1 (unknown origin) expressed in Chinese hamster V79MZ cells using [1,2-3H]-11-deoxycorticosterone as substrate preincubated for 60 mins followed by substrate addition measured after 25 mins by HPLC analysis; type: cell-based

Row | inhibition at 0.5 µM [1] [%] | inhibition at 0.5 µM [2] [%] | inhibition at 2 µM [3] [%] | inhibition at 2 µM [4] [%] | IC50 [5] [nM] | IC50 [6] [nM] | SMILES
1 | 98 | 95 | 0 | – | – | – | CC(C)(C(=O)c1cccnc1)c1cccnc1 [METYRAPONE]
2 | 40.7 | 3.4 | 0 | 0 | – | – | O=c1c2ccccc2[nH]c2ccc(Cn3ccnc3)cc12
3 | 97.5 | 40.8 | 95.5 | 1.4 | 14.4 | 21.2 | O=c1c2ccccc2[nH]c2c(Cn3ccnc3)cccc12
4 | 16.4 | 25.6 | 99 | 6.8 | – | – | N#Cc1ccc(C(c2ccc(C#N)cc2)n2cncn2)cc1 [LETROZOLE]
